*1 amine or outer side, *2 acyl side, *3 side chain or, on linkers, in order; H or OH if unused. Where a SMILES comes first, the peptide text is derived from it. Bridges are numbered along the chain shown (N, C = ends). [ ]: non-standard residue; d: D form. The star is where a group is joined. ξ: configuration not given here. hPhe(3-OMe,4-CONHMe) = CNC(=O)c1ccc(CC[C@H](N)C(=O)O)cc1OC; Phe(4-COOH) = N[C@@H](Cc1ccc(C(=O)O)cc1)C(=O)O; X11 = CNC(=O)c1ccc(CCN(CC(=O)[*:2])[*:1])cc1OC; NMePhe(3-Cl) = CN[C@@H](Cc1cccc(Cl)c1)C(=O)O; NMehPhe = CN[C@@H](CCc1ccccc1)C(=O)O; X7 = O=C(C[C@H](COCCO)N[*:1])[*:2]; NMeF = CN[C@@H](Cc1ccccc1)C(=O)O; NMeGABA = CN(CCCC(=O)[*:2])[*:1]; NMeI = CC[C@H](C)[C@H](NC)C(=O)O; NMeL = CN[C@@H](CC(C)C)C(=O)O; NMeV = CN[C@H](C(=O)O)C(C)C; NMeAbu = CC[C@H](NC)C(=O)O; NMeA = CN[C@@H](C)C(=O)O; Piperidide = C1CCN(*)CC1; CH2CONHMe = CNC(=O)C*; Me2NCH2CH2 = CN(C)CC*; NBuGly = CCCCNCC(=O)O; NPrGly = CCCNCC(=O)O; ξV = CC(C)C(N)C(=O)O; N(OH)Me = CN(O)*; Sar = CNCC(=O)O; tBu = CC(C)(C)*
Experiment: in vitro
Conditions: human

| SMILES | Papp (Caco-2, Caco-2 (cm/sec)) | also measured |
| --- | --- | --- |
| CCCN1CC(=O)N(C)[C@@H](CC(C)C)C(=O)N[C@H](C(=O)N2CCCCC2)CC(=O)N(C)[C@@H](CC(C)C)C(=O)N[C@@H](Cc2ccccc2)C(=O)N(C)[C@@H](CC(C)C)C(=O)N(C)[C@@H](CC(C)C)C(=O)N[C@@H](COCC(=O)NC)C(=O)N(C)[C@@H](CCc2ccccc2)C(=O)N(C)[C@@H](CC(C)C)C(=O)N[C@@H]([C@@H](C)O)C1=O [Compound I04] ([NMeL]F[NMeL][NMeL]S(CH2CONHMe)[NMehPhe][NMeL]T[NPrGly][NMeL]D-Piperidide; lactam N-11) |  | Papp (Caco-2, Caco-2 (membrane permeability)): 0.55 ×10⁻⁶ cm/s |
| CC[C@H](C)[C@H]1C(=O)N[C@@H](Cc2ccc(O)cc2)C(=O)N(C)CC(=O)N(C)[C@@H](CC(C)C)C(=O)N[C@H](C(=O)N2CCCCC2)CC(=O)N(C)[C@@H](C)C(=O)N[C@@H](CC(C)C)C(=O)N(C)[C@@H](C)C(=O)N(C)[C@@H](Cc2ccccc2)C(=O)N[C@@H](C(C)C)C(=O)N(C)[C@@H](C)C(=O)N1C [pd116] ([NMeA]L[NMeA][NMeF]V[NMeA][NMeI]Y[Sar][NMeL]D-Piperidide; lactam N-11) | 0.14 ×10⁻⁶ cm/s |  |
| CC(C)C[C@@H]1NC(=O)[C@H](CC(C)C)N(C)C(=O)CCCN(C)C(=O)C[C@@H](C(=O)N2CCCCC2)NC(=O)[C@H](CC(C)C)N(C)C(=O)[C@H](CC(C)C)N(C)C(=O)[C@H]([C@@H](C)O)NC(=O)[C@H](CC(C)C)N(C)C(=O)[C@H](COCCN(C)C)NC(=O)[C@H](Cc2ccccc2)N(C)C(=O)[C@H](Cc2ccccc2)N(C)C1=O [pd54] ([NMeGABA][NMeL]L[NMeF][NMeF]S(Me2NCH2CH2)[NMeL]T[NMeL][NMeL]D-Piperidide; lactam N-11) |  | Papp (Caco-2, Caco-2): 0.073 ×10⁻⁶ cm/s |
| CC[C@H](C)[C@@H]1NC(=O)[C@H](CC(C)C)N(C)C(=O)CN(C)C(=O)C[C@@H](C(=O)N2CCCCC2)NC(=O)[C@H](CC(C)C)N(C)C(=O)[C@H](Cc2ccc(C(=O)N(C)O)cc2)NC(=O)[C@H](CC(C)C)N(C)C(=O)[C@H](Cc2cccc(Cl)c2)N(C)C(=O)CN(C)C(=O)[C@H]([C@@H](C)O)NC(=O)[C@H](CC(C)C)N(C)C1=O [AP255] ([Sar][NMeL]I[NMeL]T[Sar][NMePhe(3-Cl)][NMeL][Phe(4-COOH)](N(OH)Me)[NMeL]D-Piperidide; lactam N-11) | 0.05 ×10⁻⁶ cm/s |  |
| CC(C)C[C@@H]1NC(=O)[C@H](CC(C)C)N(C)C(=O)C[C@@H](C(=O)N2CCCCC2)NC(=O)[C@H](CC(C)C)N(C)C(=O)CN(C)C(=O)[C@H]([C@@H](C)O)NC(=O)[C@H](C(C)C)N(C)C(=O)[C@H](CC(C)C)N(C)C(=O)[C@H](Cc2ccc(C(=O)N(C)O)cc2)NC(=O)[C@H](CC(C)C)N(C)C(=O)[C@H](CC(C)C)N(C)C1=O [AP253] ([NMeL]L[NMeL][NMeL][Phe(4-COOH)](N(OH)Me)[NMeL][NMeV]T[Sar][NMeL]D-Piperidide; lactam N-11) | 0.12 ×10⁻⁶ cm/s |  |
| CC[C@H](C)[C@@H]1NC(=O)[C@H](Cc2ccccc2)N(C)C(=O)[C@H](CCc2ccc(C(=O)NC)c(OC)c2)NC(=O)[C@H](CC(C)C)N(C)C(=O)[C@H](C(C)C)NC(=O)[C@H](CC(C)C)N(C)C(=O)[C@H](CC(C)C)N(C)C(=O)CNC(=O)[C@H](CC)N(C)C(=O)C[C@@H](C(=O)N2CCCCC2)NC(=O)[C@H]([C@@H](C)O)NC(=O)[C@H](CC(C)C)N(C)C(=O)[C@H](CC(C)C)N(C)C1=O [AP266] ([NMeAbu]G[NMeL][NMeL]V[NMeL][hPhe(3-OMe,4-CONHMe)][NMeF]I[NMeL][NMeL]TD-Piperidide; lactam N-13) | < 0.0895 ×10⁻⁶ cm/s |  |
| CCCCN1CC(=O)N(C)[C@@H](CC(C)C)C(=O)N[C@H](C(=O)N2CCCCC2)CC(=O)N(C)[C@@H](CC(C)C)C(=O)N[C@@H](COCCO)CC(=O)N(C)[C@@H](CC(C)C)C(=O)N(C)[C@@H](Cc2ccccc2)C(=O)N[C@@H](CC(C)C)C(=O)N(C)[C@@H](Cc2ccccc2)C(=O)N(C)[C@@H](CC(C)C)C(=O)N[C@@H]([C@@H](C)O)C1=O [AP23] ([NMeL][X7][NMeL][NMeF]L[NMeF][NMeL]T[NBuGly][NMeL]D-Piperidide; lactam N-11) | 0.43 ×10⁻⁶ cm/s |  |
| CC(C)C[C@@H]1NC(=O)[C@H](Cc2ccccc2)N(C)C(=O)C(C(C)C)NC(=O)C[C@@H](C(=O)N2CCCCC2)NC(=O)[C@H](Cc2ccccc2)N(C)C(=O)[C@H](Cc2ccccc2)N(C)C(=O)[C@H](COC(C)(C)C)NC(=O)[C@H](CC(C)C)N(C)C(=O)CN(C)C(=O)[C@H]([C@@H](C)O)NC(=O)[C@H](CC(C)C)N(C)C1=O (stereo partly drawn) [pd215] ([ξV][NMeF]L[NMeL]T[Sar][NMeL]S(tBu)[NMeF][NMeF]D-Piperidide; lactam N-11) | 1.2 ×10⁻⁶ cm/s |  |
| CC[C@H](C)[C@@H]1NC(=O)[C@H](CC(C)C)N(C)C(=O)CN(C)C(=O)C[C@@H](C(=O)N2CCCCC2)NC(=O)[C@H](CC(C)C)N(C)C(=O)[C@H](COC(C)(C)C)NC(=O)[C@H](CC(C)C)N(C)C(=O)[C@H](Cc2ccccc2)N(C)C(=O)CN(CCc2ccc(C(=O)NC)c(OC)c2)C(=O)[C@H]([C@@H](C)O)NC(=O)[C@H](CC)N(C)C1=O [AP218] ([Sar][NMeL]I[NMeAbu]T[X11][NMeF][NMeL]S(tBu)[NMeL]D-Piperidide; lactam N-11) | 0.55 ×10⁻⁶ cm/s |  |
